These results are taken from patent US11957687B2 (REGENERON PHARMACEUTICALS, INC., priority 2019, dated 2024).

Molecules are shown by their SMILES.

A short description of data set [1]: Microsome stability assay, mouse liver microsomes. It is filed as in vitro ADME. Particulars: 1 μM compound, 0.5 mg/mL microsomal protein; for microsomal CLint at 1 μM / half-life at 1 μM / microsomal CLint at 1 h, 1 µM / half-life at 1 h, 1 µM: mouse, mouse liver microsomes, pooled, NADPH, 37° C.; for microsomal CLint at 1 μM / microsomal CLint at 1 h, 1 µM: read-out: Microsome Stability Mouse liver microsomes Cl; for half-life at 1 μM / half-life at 1 h, 1 µM: read-out: Microsome Stability Mouse liver microsomes T½. An outline of the steps:
(§1)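 Compound at 1 μM incubated at 37° C with pooled human or mouse liver microsomes (0.5 mg/mL protein) plus NADPH regenerating system, sampled at 0–60 min; a 60-min no-NADPH incubation also included. Single replicate; LC/MS/MS disappearance from analyte/internal standard peak area ratios, without standard curve.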
A general note: Microsomes from liver hold many membrane-bound enzymes, among them those of drug oxidation.

A further data set concerns the target HSD17B13 (Homo sapiens (Human), UniProt Q7Z5P4). Kind of data set: HSD17B13 enzymatic inhibition assay (150 nM or 50 nM HSD17B13). The data set is classed as biochemical. Particulars: 50 nM HSD17B13; read-out: Inhibition of 50 nM of HSD17B13 IC50.
For another data set, the target named is HSD17B2 (Homo sapiens (Human), UniProt P37059). Kind of data set: HSD17B2 enzymatic blocking assay. The settings on record: 1.8 μM Estradiol, 650 μM NAD; read-out: Inhibition of HSD17B2 IC50. It is filed as biochemical. An outline of the steps:
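Mammalian-expressed enzyme at 2 ng/μL in 50 mM Tris-HCl pH 7.5 with detergents/BSA, preincubated 15 min at 20° C. with compound (10-point titration). Reaction with 1.8 μM estradiol and 650 μM NAD ran 45 min at 20° C.; NADH measured by NADH-Glo luminescence and IC50 derived.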

For the next data set, the target named is HSD17B1 (Homo sapiens (Human), UniProt P14061). Kind of data set: HSD17B1 enzymatic blocking assay. The data set is classed as biochemical. Particulars: 25 μM Estradiol, 500 μM NAD; read-out: Inhibition of HSD17B1 IC50. The method in brief: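 Activity followed as NADH formed on estradiol oxidation, read by NADH-Glo luminescence after 1 h detection in the dark at room temperature. Compounds preincubated with enzyme 30 min at room temperature; 0.5% DMSO and no-substrate controls. IC50 fitted from luminescence.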

Data set [2] can be described thus: Microsome stability assay, human liver microsomes. The data set is classed as in vitro ADME. Particulars: 1 μM compound, 0.5 mg/mL microsomal protein; for microsomal CLint at 1 h, 1 µM / half-life at 1 h, 1 µM / microsomal CLint at 1 μM / half-life at 1 μM: human, human liver microsomes, pooled, NADPH, 37° C.; for microsomal CLint at 1 h, 1 µM / microsomal CLint at 1 μM: read-out: Microsome Stability Human liver microsomes Cl; for half-life at 1 h, 1 µM / half-life at 1 μM: read-out: Microsome Stability Human liver microsomes T½. An outline of the steps:
as §1

Chain of HSD17B2 (P37059 other isoform, or with tags, fused parts or gaps): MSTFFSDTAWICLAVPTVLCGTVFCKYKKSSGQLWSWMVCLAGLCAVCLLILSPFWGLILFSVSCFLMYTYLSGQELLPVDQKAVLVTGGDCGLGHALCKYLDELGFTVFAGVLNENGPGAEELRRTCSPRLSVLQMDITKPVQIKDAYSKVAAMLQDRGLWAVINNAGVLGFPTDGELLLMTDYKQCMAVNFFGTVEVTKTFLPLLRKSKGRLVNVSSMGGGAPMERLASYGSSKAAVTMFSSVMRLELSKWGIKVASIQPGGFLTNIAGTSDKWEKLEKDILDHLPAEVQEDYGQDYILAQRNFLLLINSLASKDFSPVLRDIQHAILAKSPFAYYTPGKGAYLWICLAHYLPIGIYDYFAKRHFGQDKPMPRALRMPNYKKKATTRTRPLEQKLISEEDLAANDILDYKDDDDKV
Chain of HSD17B1 (P14061 other isoform, or with tags, fused parts or gaps): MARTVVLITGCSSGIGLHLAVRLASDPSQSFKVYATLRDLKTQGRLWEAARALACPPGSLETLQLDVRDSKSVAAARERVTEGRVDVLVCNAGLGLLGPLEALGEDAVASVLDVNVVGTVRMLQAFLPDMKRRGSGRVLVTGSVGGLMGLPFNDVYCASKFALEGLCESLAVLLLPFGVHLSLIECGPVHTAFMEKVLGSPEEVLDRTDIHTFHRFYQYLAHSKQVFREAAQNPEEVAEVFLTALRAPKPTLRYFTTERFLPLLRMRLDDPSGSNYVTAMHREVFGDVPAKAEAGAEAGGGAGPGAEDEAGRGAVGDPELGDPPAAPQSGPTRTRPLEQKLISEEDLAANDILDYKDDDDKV
Chain of HSD17B13 (Q7Z5P4 other isoform, or with tags, fused parts or gaps): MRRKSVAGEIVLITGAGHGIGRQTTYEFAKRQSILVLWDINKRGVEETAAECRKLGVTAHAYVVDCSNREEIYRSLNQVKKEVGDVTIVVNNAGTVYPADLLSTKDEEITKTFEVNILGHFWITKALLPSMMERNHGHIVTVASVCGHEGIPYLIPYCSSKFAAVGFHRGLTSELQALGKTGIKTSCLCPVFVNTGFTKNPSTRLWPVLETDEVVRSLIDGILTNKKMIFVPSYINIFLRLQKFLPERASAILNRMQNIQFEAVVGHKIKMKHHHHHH

For `O=C(Nc1cccc2c(O)cccc12)c1ccc(C(F)(F)F)[nH]c1=O` [Compound 223, N-(5-hydroxynaphthalen-1-yl)-2-oxo-6-(trifluoromethyl)-1,2-dihydropyridine-3-carboxamide], in data set [1], the “Microsome Stability Mouse liver microsomes % Remaining @60 min” value was determined as 83.80%, the microsomal CLint at 1 μM is less than 9.6 µL/min/mg and the half-life at 1 μM is more than 2.42 h. The IC50 on HSD17B13 is 0.35 µM. Also, the IC50 on HSD17B2 turned out to be 28.6 µM. Moreover, the half-maximal inhibitory concentration (IC50) at HSD17B1 is more than 30 µM. In addition, in data set [2], the “Microsome Stability Human liver microsomes % Remaining @60 min” value turned out to be 60.30%; the microsomal CLint at 1 h, 1 µM was found to be 14.8 µL/min/mg; the half-life at 1 h, 1 µM turned out to be 1.56 h.

Regarding `Nc1cccc2c(NC(=O)c3ccc(C(F)(F)F)[nH]c3=O)cccc12` [Compound 228, N-(5-aminonaphthalen-1-yl)-2-oxo-6-(trifluoromethyl)-1,2-dihydropyridine-3-carboxamide], in data set [1], the “Microsome Stability Mouse liver microsomes % Remaining @60 min” value worked out at 76.60%, the microsomal CLint at 1 μM was less than 9.6 µL/min/mg and the half-life at 1 μM is more than 2.42 h. Besides, on HSD17B13, the IC50 amounted to 0.56 µM. Besides, the IC50 at HSD17B2 came out at 28 µM. For the same compound, on HSD17B1, the IC50 is 24.8 µM. Further, in data set [2], the “Microsome Stability Human liver microsomes % Remaining @60 min” value was 60.40%; the microsomal CLint at 1 h, 1 µM came out at 16.4 µL/min/mg; the half-life at 1 h, 1 µM was 1.41 h.

Regarding `O=C(NC1CCCc2c(O)cccc21)c1ccc(C(F)(F)F)[nH]c1=O` (stereo not drawn) [Compound 230, N-(5-hydroxy-1,2,3,4-tetrahydronaphthalen-1-yl)-2-oxo-6-(trifluoromethyl)-1,2-dihydropyridine-3-carboxamide], the “Microsome Stability Mouse liver microsomes % Remaining @60 min” value in data set [1] is recorded as 94.70%. Also, the microsomal CLint at 1 μM in data set [1] and in data set [2] was less than 9.6 µL/min/mg throughout. For the same compound, the half-life at 1 μM in data set [1] and in data set [2] was more than 2.42 h each time. Further, the values for the IC50 at HSD17B13, on HSD17B2 and on HSD17B1 were 0.21 µM, 40.7 µM and more than 30 µM, respectively. The “Microsome Stability Human liver microsomes % Remaining @60 min” value in data set [2] amounted to 83.40%.

In the case of `COc1ccc2c(c1)Sc1cc(OC)ccc1C2NC(=O)c1ccc(C(F)(F)F)[nH]c1=O` [Compound 241, N-(3,6-dimethoxy-9H-thioxanthen-9-yl)-2-oxo-6-(trifluoromethyl)-1,2-dihydropyridine-3-carboxamide], in data set [1], the “Microsome Stability Mouse liver microsomes % Remaining @60 min” value came out at 64%; the microsomal CLint at 1 h, 1 µM is 13.4 µL/min/mg; the half-life at 1 h, 1 µM is 1.72 h. The IC50 on HSD17B13 worked out at 0.03 µM. Also, the IC50 at HSD17B2 was more than 100 µM. For the same compound, on HSD17B1, the IC50 worked out at 15.8 µM. Further, in data set [2], the “Microsome Stability Human liver microsomes % Remaining @60 min” value is on record as 78%, the microsomal CLint at 1 μM was less than 9.6 µL/min/mg and the half-life at 1 μM is more than 2.42 h.

`Cc1ccc2c(c1)Sc1cc(C)ccc1C2NC(=O)c1ccc(C(F)(F)F)[nH]c1=O` [Compound 252, N-(3,6-dimethyl-9H-thioxanthen-9-yl)-2-oxo-6-(trifluoromethyl)-1,2-dihydropyridine-3-carboxamide]: in data set [1], the “Microsome Stability Mouse liver microsomes % Remaining @60 min” value worked out at 28.60%; the microsomal CLint at 1 h, 1 µM stood at 41.7 µL/min/mg; the half-life at 1 h, 1 µM was 0.553 h. At HSD17B13, the IC50 worked out at 0.01 µM. Moreover, the 50% inhibitory concentration (IC50) at HSD17B2 stood at 19.3 µM. Moreover, the IC50 on HSD17B1 was 5.84 µM. In data set [2], the “Microsome Stability Human liver microsomes % Remaining @60 min” value is listed as 73.50%; the microsomal CLint at 1 h, 1 µM came out at 11 µL/min/mg; the half-life at 1 h, 1 µM came out at 2.1 h.

In the case of `Cc1ccc2c(c1)Oc1cc(C)ccc1C2NC(=O)c1cc(OC2CCOCC2)c(C(F)(F)F)[nH]c1=O` [Compound 260, N-(3,6-dimethyl-9H-xanthen-9-yl)-2-oxo-5-((tetrahydro-2H-pyran-4-yl)oxy)-6-(trifluoromethyl)-1,2-dihydropyridine-3-carboxamide], in data set [1], the “Microsome Stability Mouse liver microsomes % Remaining @60 min” value is listed as 81.70%, the microsomal CLint at 1 μM was less than 9.6 µL/min/mg and the half-life at 1 μM is more than 2.42 h. In addition, the IC50 on HSD17B13 worked out at 0.02 µM. For the same compound, the IC50 at HSD17B2 is 32.1 µM. Further, on HSD17B1, the IC50 worked out at 11.1 µM. In addition, in data set [2], the “Microsome Stability Human liver microsomes % Remaining @60 min” value was determined as 24.50%; the microsomal CLint at 1 h, 1 µM was 46.9 µL/min/mg; the half-life at 1 h, 1 µM was 0.492 h.

The IC50 is the concentration that inhibits the measured activity by half.
